From US20100087392A1 (Pierre Fabre Medicament, priority 2007, published 2010) come the findings set out here.

This data set in a line: in vivo. The conditions noted are these: rat, po, 20 mg/kg. The protocol: Chromatographic Conditions: • Column: Synergi Fusion-RP 80, 2×50 mm, 4 microns
Mobile Phase: • Channel A: 13.3 mM ammonium formate/6.7 mM formic acid in water • Channel B: 6 mM ammonium formate/3 mM formic acid in water/acetonitrile (1/9, v/v)
• Plot of the curve/obtaining the plasma profile=plasma concentration as a function of the time post administration

A word on the AUC: it is concentration integrated over time. Usually Cmax stands for the maximum level reached in the sampled fluid or tissue. Broadly, the Tmax is the time from dosing to the highest level. As to `CC(C)Cc1ccc(C(C)C(=O)O)cc1` (stereo not drawn) [IBU alone, ibuprofen], the AUC amounted to 7190 ng·h/mL, the Cmax was 2280 ng/mL and the Tmax was determined as 30 min.
